Legend:
wheat [1] = assay: Test C preemergence; assay type: in vivo, Triticum aestivum
In short: (§1)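 Seeds in loam–sand blend received preemergence directed soil spray of test chemicals in non-phytotoxic solvent with surfactant; postemergence treatment was applied at one- to two-leaf stage (2–10 cm). After 10 days in greenhouse, injury rated visually versus untreated controls, 0 (no effect) to 100 (complete control).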

green foxtail [2] = assay: Test C postemergence; assay type: in vivo, Setaria viridis; details: 10 days, 0 to 100 scale (0 no effect, 100 complete control)
In short: as §1

wheat [3] = assay: Test C postemergence; assay type: in vivo, Triticum aestivum; details: 10 days, 0 to 100 scale (0 no effect, 100 complete control)
In short: as §1

oat, wild [4] = assay: Test C postemergence; assay type: in vivo, Avena fatua; details: 10 days, 0 to 100 scale (0 no effect, 100 complete control)
In short: as §1

corn [5] = assay: Test C preemergence; assay type: in vivo, Zea mays
In short: as §1

pigweed, palmer [6] = assay: Test C postemergence; assay type: in vivo, Amaranthus palmeri; details: 10 days, 0 to 100 scale (0 no effect, 100 complete control)
In short: as §1

ragweed [7] = assay: Test C preemergence; assay type: in vivo, Ambrosia artemisiifolia
In short: as §1

blackgrass [8] = assay: Test C postemergence; assay type: in vivo, Alopecurus myosuroides; details: 10 days, 0 to 100 scale (0 no effect, 100 complete control)
In short: as §1

horseweed = assay: Test C postemergence; assay type: in vivo, Erigeron canadensis; details: 10 days, 0 to 100 scale (0 no effect, 100 complete control)
In short: as §1

pigweed, palmer [9] = assay: Test C preemergence; assay type: in vivo, Amaranthus palmeri
In short: as §1

rice = assay: Test D flooded paddy test; assay type: in vivo, Oryza sativa; details: 250 g ai/ha, applied to paddy water, visual rating after 13 to 14 days, scale 0 to 100 (0 no effect, 100 complete control)
In short: (§2)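 Compounds go straight into paddy water over 2-leaf plants in pots flooded to 3 cm. Greenhouse holding lasts 13 to 14 days. Injury is scored by eye against controls from 0 (none) to 100 (complete control).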

soybean [10] = assay: Test C preemergence; assay type: in vivo, Glycine max
In short: as §1

corn [11] = assay: Test C postemergence; assay type: in vivo, Zea mays; details: 10 days, 0 to 100 scale (0 no effect, 100 complete control)
In short: as §1

ryegrass, Italian [12] = assay: Test C postemergence; assay type: in vivo, Lolium multiflorum; details: 10 days, 0 to 100 scale (0 no effect, 100 complete control)
In short: as §1

sedge, umbrella = assay: Test D flooded paddy test; assay type: in vivo, Cyperus difformis; details: 250 g ai/ha, applied to paddy water, visual rating after 13 to 14 days, scale 0 to 100 (0 no effect, 100 complete control)
In short: as §2

barnyardgrass [13] = assay: Test C postemergence; assay type: in vivo, Echinochloa crusgalli; details: 10 days, 0 to 100 scale (0 no effect, 100 complete control)
In short: as §1

ducksalad = assay: Test D flooded paddy test; assay type: in vivo, Heteranthera limosa; details: 250 g ai/ha, applied to paddy water, visual rating after 13 to 14 days, scale 0 to 100 (0 no effect, 100 complete control)
In short: as §2

kochia [14] = assay: Test C preemergence; assay type: in vivo, Bassia scoparia
In short: as §1

barnyardgrass [15] = assay: Test C preemergence; assay type: in vivo, Echinochloa crusgalli
In short: as §1

green foxtail [16] = assay: Test C preemergence; assay type: in vivo, Setaria viridis
In short: as §1

kochia [17] = assay: Test C postemergence; assay type: in vivo, Bassia scoparia; details: 10 days, 0 to 100 scale (0 no effect, 100 complete control)
In short: as §1

galium = assay: Test C postemergence; assay type: in vivo, Galium aparine; details: 10 days, 0 to 100 scale (0 no effect, 100 complete control)
In short: as §1

ragweed [18] = assay: Test C postemergence; assay type: in vivo, Ambrosia artemisiifolia; details: 10 days, 0 to 100 scale (0 no effect, 100 complete control)
In short: as §1

soybean [19] = assay: Test C postemergence; assay type: in vivo, Glycine max; details: 10 days, 0 to 100 scale (0 no effect, 100 complete control)
In short: as §1

barnyardgrass [20] = assay: Test D flooded paddy test; assay type: in vivo, Echinochloa crus-galli; details: 250 g ai/ha, applied to paddy water, visual rating after 13 to 14 days, scale 0 to 100 (0 no effect, 100 complete control)
In short: as §2

oat, wild [21] = assay: Test C preemergence; assay type: in vivo, Avena fatua
In short: as §1

ryegrass, Italian [22] = assay: Test C preemergence; assay type: in vivo, Lolium multiflorum
In short: as §1

blackgrass [23] = assay: Test C preemergence; assay type: in vivo, Alopecurus myosuroides
In short: as §1

[24] = 500 g ai/ha, preemergence, 0 to 100 scale (0 no effect, 100 complete control)
[25] = Preemergence, 125 g ai/ha, 0 to 100 scale, 0 no effect, 100 complete control

In the case of `CCOC(=O)c1ncn(-c2ccc(C)c(C(=O)N3C[C@H](C)Oc4c(Cl)cccc43)c2)n1` [Compound 342], the “Wheat plant response rating” value (wheat [1]; [24]) is reported as 30, the “Plant response rating, Wheat” value (wheat [1]; [25]) is reported as 0 and the “Plant response rating, Foxtail, Green” value (green foxtail [2]; 500 g ai/ha, postemergence) is reported as 90. For the same compound, the “Plant response rating, Foxtail, Green” value (green foxtail [2]; Postemergence, 125 g ai/ha) was 80, the “Plant response rating, Wheat” value (wheat [3]; 500 g ai/ha, postemergence) was 80 and the “Plant response rating, Wheat” value (wheat [3]; Postemergence, 125 g ai/ha) was 70. The “Plant response rating, Oat, Wild” value (oat, wild [4]; 500 g ai/ha, postemergence) was 80, the “Plant response rating, Oat, Wild” value (oat, wild [4]; Postemergence, 125 g ai/ha) was 70 and the “Corn plant response rating” value (corn [5]; [24]) was 20. For the same compound, the “Plant response rating, Corn” value (corn [5]; [25]) was 0, the “Plant response rating, Pigweed, Palmer” value (pigweed, palmer [6]; 500 g ai/ha, postemergence) was 100 and the “Plant response rating, Pigweed, Palmer” value (pigweed, palmer [6]; Postemergence, 125 g ai/ha) was 90. The “Ragweed plant response rating” value (ragweed [7]; [24]) was 20, the “Plant response rating, Ragweed” value (ragweed [7]; [25]) was 0 and the “Plant response rating, Blackgrass” value (blackgrass [8]; 500 g ai/ha, postemergence) was 80. For the same compound, the “Plant response rating, Blackgrass” value (blackgrass [8]; Postemergence, 125 g ai/ha) was 60, the “Plant response rating, Horseweed” value (horseweed; 500 g ai/ha, postemergence) was 50 and the “Plant response rating, Horseweed” value (horseweed; Postemergence, 125 g ai/ha) was 10. For the same compound, the “Pigweed, Palmer plant response rating” value (pigweed, palmer [9]; [24]) was 70, the “Plant response rating, Pigweed, Palmer” value (pigweed, palmer [9]; [25]) was 30 and the “Plant response rating, Rice (Flood)” value (rice) was 15. For the same compound, the “Soybean plant response rating” value (soybean [10]; [24]) was 10, the “Plant response rating, Soybean” value (soybean [10]; [25]) was 10 and the “Plant response rating, Corn” value (corn [11]; 500 g ai/ha, postemergence) was 70. For the same compound, the “Plant response rating, Corn” value (corn [11]; Postemergence, 125 g ai/ha) was 70, the “Plant response rating, Ryegrass, Italian” value (ryegrass, Italian [12]; 500 g ai/ha, postemergence) was 70 and the “Plant response rating, Ryegrass, Italian” value (ryegrass, Italian [12]; Postemergence, 125 g ai/ha) was 70. The “Plant response rating, Sedge, Umbrella (Flood)” value (sedge, umbrella) was 15, the “Plant response rating, Barnyardgrass” value (barnyardgrass [13]; 500 g ai/ha, postemergence) was 70 and the “Plant response rating, Barnyardgrass” value (barnyardgrass [13]; Postemergence, 125 g ai/ha) was 60. The “Plant response rating, Ducksalad (Flood)” value (ducksalad) was 10, the “Kochia plant response rating” value (kochia [14]; [24]) was 0 and the “Plant response rating, Kochia” value (kochia [14]; [25]) was 0. The “Barnyardgrass plant response rating” value (barnyardgrass [15]; [24]) was 60, the “Plant response rating, Barnyardgrass” value (barnyardgrass [15]; [25]) was 20 and the “Foxtail, Green plant response rating” value (green foxtail [16]; [24]) was 90. The “Plant response rating, Foxtail, Green” value (green foxtail [16]; [25]) was 40, the “Plant response rating, Kochia” value (kochia [17]; 500 g ai/ha, postemergence) was 60 and the “Plant response rating, Kochia” value (kochia [17]; Postemergence, 125 g ai/ha) was 40. The “Plant response rating, Galium” value (galium; 500 g ai/ha, postemergence) was 80, the “Plant response rating, Galium” value (galium; Postemergence, 125 g ai/ha) was 70 and the “Plant response rating, Ragweed” value (ragweed [18]; 500 g ai/ha, postemergence) was 80. The “Plant response rating, Ragweed” value (ragweed [18]; Postemergence, 125 g ai/ha) was 50, the “Plant response rating, Soybean” value (soybean [19]; 500 g ai/ha, postemergence) was 90 and the “Plant response rating, Soybean” value (soybean [19]; Postemergence, 125 g ai/ha) was 100. The “Plant response rating, Barnyardgrass (Flood)” value (barnyardgrass [20]) was 0, the “Oat, Wild plant response rating” value (oat, wild [21]; [24]) was 80 and the “Plant response rating, Oat, Wild” value (oat, wild [21]; [25]) was 20. The “Ryegrass, Italian plant response rating” value (ryegrass, Italian [22]; [24]) was 80, the “Plant response rating, Ryegrass, Italian” value (ryegrass, Italian [22]; [25]) was 70 and the “Blackgrass plant response rating” value (blackgrass [23]; [24]) was 50. The “Plant response rating, Blackgrass” value (blackgrass [23]; [25]) was 20.

Source: US20260262643A1, “HERBICIDAL BENZOXAZINES” (FMC CORPORATION, priority 2022, published 2026)
